Results: patent publication US20100298371A1, “PROCESS FOR PREPARING CHEMICALLY AND CHIRALLY PURE SOLIFENACIN BASE AND ITS SALTS” (priority 2007, published 2010)
Where a name gives a salt, the structure may show the parent alone. Read-outs that look alike come from different tables or passages of the source.

Key:
[1] = Pharmacokinetic profile of Solifenacin salts in fasted male Wistar rats; type: in vivo; settings: for absorption / rate of absorption: compared to the succinate salt
[2] = Stability study on storage (40° C. ± 2° C./75% ± 5% RH); type: physicochemical
Procedure: The complete x-ray powder spectrum, was recorded with a Rigaku D/Max 2200 VPC X-ray powder diffractometer model using copper radiation. The X-ray diffraction pattern was recorded by keeping the instrument parameters as below: • X-ray: Cu/40 kv/30 mA, Diverging slit: 1°, Scattering slit: 1°, Receiving slit: 0.15 mm, Monochromator RS: 0.8 mm, Counter: Scintillation counter,
Solifenacin base and its salts were analyzed for purity by analytical HPLC at λ^max 220 nm using column J'sphere-ODS, 150 mm×4.6 mm×4μ or its equivalent on AGILENT 1100 series under the following conditions, • Detector: UV absorption photometer Wave length: 220 nm Column temp.: 30° C. • Flow rate: 1.0 mL/min. Injection Vol.: 5 μL • Mobile Phase (gradient elution): 0.05 TFA buffer in water:Acetonitrile
Several of the Solifenacin salts prepared according to the present invention has chemical and polymorphic stability on storage.

[3] = Intrinsic dissolution rate of various salts of Solifenacin; type: physicochemical
[4] = Table 3b, fasted male Wistar rats, dose 30 mg/kg, mean
[5] = Table 3a, fasted male Wistar rats, dose 30 mg/kg, mean
[6] = After 3 Month at 40° C. ± 2° C./75% ± 5% RH
[7] = Table 3b, fasted male Wistar rats, dose 30 mg/kg, mean, hydrochloride salt
[8] = Table 3b, fasted male Wistar rats, dose 30 mg/kg, mean, succinate salt
[9] = fasted male Wistar rats, ratio to succinate

Compound | AUC (0-inf) [1, 4] [ng·h/mL] | AUC (0-t) [1, 4] [ng·h/mL] | Cmax [1, 4] [ng/mL] | Tmax [1, 4] [h] | Description [2, 6] | Polymorphism XRD [2, 6] | Purity (By HPLC) [2, 6] [%] | Water (by KFR) [2, 6] [%] | Description ([2]; Initial) | Polymorphism XRD ([2]; Initial) | Purity (By HPLC) ([2]; Initial) [%] | Water (by KFR) ([2]; Initial) [%] | Kel [1, 4] [h⁻¹] | T1/2 [1, 4] [h] | other results
O=C(O[C@H]1CN2CCC1CC2)N1CCc2ccccc2[C@@H]1c1ccccc1.O=C1O[C@H]([C@@H](O)CO)C(O)=C1O [Solifenacin Ascorbate] | 96.99 | 85.66 | 29.04 | 1.30 |  |  |  |  |  |  |  |  |  |  | absorption / rate of absorption ([1]; in words): faster; better absorption than the succinate salt ([1]; relative to succinate): 20%
O=C(O)c1cc(O)ccc1O.O=C(O[C@H]1CN2CCC1CC2)N1CCc2ccccc2[C@@H]1c1ccccc1 [Solifenacin Gentisate, (+)-(1S,3′R)-quinuclidin-3′-yl 1-phenyl-1,2,3,4-tetrahydro-isoquinoline-2-carboxylate gentisate salt] | 74.19 | 58.97 | 30.66 | 1.70 | Off white colored | No Change | 99.46 | 0.29 | Off white colored powder | Crystalline pattern | 99.63 | 0.16 |  |  | AUC (0-inf) [1, 5]: 74.19 ng·h/mL; AUC (0-t) [1, 5]: 58.97 ng·h/mL; Cmax [1, 5]: 30.66 ng/mL; Tmax [1, 5]: 1.70 h; peak plasma concentrations compared with Solifenacin succinate ([1]; in words): comparable; Intrinsic dissolution rate ([3]; pH 1.2 HCl): 6.845 mg/min · cm^2; Intrinsic dissolution rate ([3]; pH 4.5 Acetate Buffer): 0.2356 mg/min · cm^2; Intrinsic dissolution rate ([3]; pH 6.8 Phosphate Buffer): 0.4932 mg/min · cm^2
O=C(O[C@H]1CN2CCC1CC2)N1CCc2ccccc2[C@@H]1c1ccccc1 [Solifenacin Hydrobromide, Solifenacin hydrobromide] |  |  |  |  |  |  |  |  |  |  |  |  |  |  | Tmax ([1]; Table 3b, fasted male Wistar rats, dose 30 mg/kg, mean, hydrobromide): 1.27 h; AUC (0-inf) ([1]; male, Wistar, rat, plasma, 30 mg/kg, Table 3b, fasted male Wistar rats, dose 30 mg/kg, mean, read-out: AUC (0-inf)): 74 ng·h/mL; AUC (0-t) ([1]; male, Wistar, rat, plasma, 30 mg/kg, Table 3b, fasted male Wistar rats, dose 30 mg/kg, mean, read-out: AUC (0-t)): 59.9 ng·h/mL; Cmax ([1]; male, Wistar, rat, plasma, 30 mg/kg, Table 3b, fasted male Wistar rats, dose 30 mg/kg, mean, read-out: Cmax): 14.1 ng/mL
O=C(O[C@H]1CN2CCC1CC2)N1CCc2ccccc2[C@@H]1c1ccccc1 [Solifenacin Hydrochloride, (+)-(1S,3′R)-quinuclidin-3′-yl 1-phenyl-1,2,3,4-tetrahydro-isoquinoline-2-carboxylate hydrochloride salt] |  |  |  |  | Off white colored | No Change | 99.6 | 0.32 | Off white colored powder | Crystalline pattern | 99.54 | 0.14 |  |  | AUC (0-inf) [1, 7]: 59.52 ng·h/mL; AUC (0-t) [1, 7]: 50.54 ng·h/mL; Cmax [1, 7]: 13.67 ng/mL; Tmax [1, 7]: 1.05 h; AUC (0-inf) ([1]; male, Wistar, rat, plasma, 30 mg/kg, Table 3a, fasted male Wistar rats, dose 30 mg/kg, mean, read-out: AUC (0-inf)): 158 ng·h/mL; AUC (0-t) ([1]; male, Wistar, rat, plasma, 30 mg/kg, Table 3a, fasted male Wistar rats, dose 30 mg/kg, mean, read-out: AUC (0-t)): 147 ng·h/mL; Cmax ([1]; male, Wistar, rat, plasma, 30 mg/kg, Table 3a, fasted male Wistar rats, dose 30 mg/kg, mean, read-out: Cmax): 94.4 ng/mL; Tmax ([1]; male, Wistar, rat, plasma, 30 mg/kg, Table 3a, fasted male Wistar rats, dose 30 mg/kg, mean, read-out: Tmax): 0.6 h; Vd ([1]; rat, plasma, Table 3a, fasted male Wistar rats, dose 30 mg/kg, mean, read-out: Vz): 1530 L; Intrinsic dissolution rate ([3]; pH 1.2 HCl, listed as HCl, hydrochloride salt): 6.6836 mg/min · cm^2; Intrinsic dissolution rate ([3]; pH 4.5 Acetate Buffer, listed as HCl, hydrochloride salt): 21.08 mg/min · cm^2; Intrinsic dissolution rate ([3]; pH 6.8 Phosphate Buffer, listed as HCl, hydrochloride salt): 20.262 mg/min · cm^2
O=C(O[C@H]1CN2CCC1CC2)N1CCc2ccccc2[C@@H]1c1ccccc1 [Solifenacin Succinate, (+)-(1S,3′R)-quinuclidin-3′-yl 1-phenyl-1,2,3,4-tetrahydro-isoquinoline-2-carboxylate succinate salt, reference compound] |  |  |  |  |  |  |  |  |  |  |  |  |  |  | AUC (0-inf) [1, 8]: 76.69 ng·h/mL; AUC (0-t) [1, 8]: 60.09 ng·h/mL; Cmax [1, 8]: 23.72 ng/mL; Tmax [1, 8]: 2.67 h; Tmax (absorption, as stated in text) ([1]; text summary of Table 3b, fasted male Wistar rats, succinate salt): 6.67 h; Intrinsic dissolution rate ([3]; pH 1.2 HCl, succinate salt): 10.666 mg/min · cm^2; Intrinsic dissolution rate ([3]; pH 4.5 Acetate Buffer, succinate salt): 9.845 mg/min · cm^2; Intrinsic dissolution rate ([3]; pH 6.8 Phosphate Buffer, succinate salt): 11.002 mg/min · cm^2
(+)-(1S,3′R)-quinuclidin-3′-yl 1-phenyl-1,2,3,4-tetrahydro-isoquinoline-2-carboxylate besylate salt [Solifenacin Besylate] | 49.27 | 45.54 | 12.84 | 1.73 |  |  |  |  |  |  |  |  | 0.36 | 1.95 | 
(+)-(1S,3′R)-quinuclidin-3′-yl 1-phenyl-1,2,3,4-tetrahydro-isoquinoline-2-carboxylate oxalate salt [Solifenacin Oxalate] | 78.78 | 49.77 | 9.10 | 1.62 | Off white colored | No Change | 99.36 | 0.33 | Off white colored powder | Crystalline pattern | 99.49 | 0.18 | 0.18 | 6.19 | AUC (0-inf) [1, 5]: 345.79 ng·h/mL; AUC (0-t) [1, 5]: 321.28 ng·h/mL; Cmax [1, 5]: 252.38 ng/mL; Kel [1, 5]: 0.26 h⁻¹; T1/2 [1, 5]: 4.76 h; Tmax [1, 5]: 0.37 h; higher plasma concentration (Bio available, Cmax) compared to Solifenacin succinate salt [1, 9]: ~10 fold; higher plasma exposure compared to Solifenacin succinate salt [1, 9]: 5 times; T1/2 value compared to the succinate salt ([1]; in words): higher; absorption / rate of absorption ([1]; in words): rapid absorption; Intrinsic dissolution rate ([3]; pH 1.2 HCl): 6.5822 mg/min · cm^2; Intrinsic dissolution rate ([3]; pH 4.5 Acetate Buffer): 6.5084 mg/min · cm^2; Intrinsic dissolution rate ([3]; pH 6.8 Phosphate Buffer): 4.9096 mg/min · cm^2
Solifenacin phosphate | 57.63 | 50.58 | 12.63 | 1.00 |  |  |  |  |  |  |  |  | 0.29 | 2.43 | 
